Assay results reported in the METLIN SMRT retention time set (Domingo-Almenara et al. 2019).

test: gradient 5% acetonitrile 3 min, to 50% in 2 min, to 85% in 15 min, held 3 min, 100 µL/min; details: column: Zorbax Extend-C18 2.1 x 50 mm; eluents: water / acetonitrile, 0.1% formic acid
Summary of the method: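 Each retention time is based on an adduct peak selected computationally and verified by manual inspection. Measurements used HPLC–quadrupole time-of-flight mass spectrometry in positive and negative ionization mode on mixtures of ~100 pure standards. Chromatography ran on a Zorbax Extend-C18 column (2.1 × 50 mm, 1.8 μm) at 100 μL/min with water and acetonitrile, each containing 0.1% formic acid, and dead and dwell volumes of 40 μL and 900 μL.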

| RP-LC retention time [s] | Compound |
| --- | --- |
| 810 | Cc1cccc(CN2CCc3nc(N4CCN(c5ccccc5F)CC4)ncc3C2)c1 |
| 1140 | CC(C)n1nnc2ccc(-c3noc(-c4ccc(F)cc4)n3)cc21 |
| 529 | CCN1CCN(c2ncc3c(n2)CCN(Cc2cccc(C)c2)C3)CC1 |
| 1010 | COC(=O)COC(=O)c1cn(-c2cccc(Cl)c2)c(=O)c2ccccc12 |
| 1070 | CC(C)Cn1cc2c3c(cccc31)CN(C(=O)Nc1ccc(F)cc1)CC2 |
| 1020 | CN(C(=O)CSc1nc(-c2ccccc2)no1)c1ccc(F)cc1 |
| 697 | CCOC(=O)C1CCC(CNC(=O)N2CCN(Cc3nc4ccc(Cl)cc4o3)CC2)CC1 (stereo not drawn) |
| 1110 | Cc1c(C(=O)NCC(C)C)cnn1-c1ccc(-c2nc(C(C)(C)C)no2)cn1 |
| 1050 | CCn1cc(-c2nc(CC(=O)Nc3ccccc3Cl)cs2)c2cccnc21 |
| 624 | O=C(NCCn1c(-c2ccncc2)nc2cccnc21)Nc1ccccc1Cl |
| 714 | CCOc1ccc(S(=O)(=O)N2CCCC(C(=O)NCCO)C2)cc1C (stereo not drawn) |
| 1310 | COc1ccc(N2CCN(c3ccc(-c4nc(-c5cccc(F)c5)no4)cn3)CC2)cc1 |
| 1120 | CCCCn1cnc2c(-c3ccccc3)cn(CC(=O)Nc3ccc(Cl)cc3)c2c1=O |
| 1040 | Cc1cc(S(=O)(=O)[C@H]2CS(=O)(=O)C[C@@H]2N2CCN(c3ccccc3F)CC2)ccc1F |
| 816 | COC(=O)c1c(NCc2cccc(OC)c2)c2cc(Cl)ccc2[nH]c1=O |
| 1170 | O=S(=O)(Nc1cccc(F)c1)c1ccccc1-c1nc(-c2ccccc2)no1 |
| 578 | O=C(c1cnn(-c2ccccc2)n1)N1CC(c2nc3ccccc3[nH]2)C1 |
| 971 | O=C(Nc1ccc(F)cc1F)Nc1nccn(-c2cccc(F)c2)c1=O |
| 828 | CCN1c2ccc(C)cc2C(=O)NC12CCN(C(=O)c1ccc(F)cc1)CC2 |
| 1080 | CCOC(=O)Cc1ccc(NC(=O)N2CCN(c3nc4ccccc4nc3C(F)(F)F)CC2)cc1 |
| 646 | CCOc1cc(=O)n2c(c1C(=O)NCCCOC(C)C)CCCCC2 |
| 740 | FC(F)(F)c1cccc(-c2cncc(N3CCN(c4ccccn4)CC3)n2)c1 |

| RP-LC retention time [s] | Compound |
| --- | --- |
| 557 | CCN(CC)C(=O)c1cc2c(s1)CCC(C(=O)NCc1ccncc1)C2 (stereo not drawn) |
| 678 | Cc1nc2c(C(=O)NCCN3CCOCC3)cnn2c(C)c1Cc1ccccc1Cl |
| 897 | CCOC(=O)c1noc2nc(C)nc(NCCCN(C)c3ccccc3)c12 |
| 1200 | O=C1CC(c2noc(-c3ccc(-c4ccccc4)cc3)n2)CN1c1ccc(F)cc1 (stereo not drawn) |
| 610 | Cc1cc(C)n(-c2ccnc(N3CCC(C(=O)NCc4ccccn4)CC3)n2)n1 |
| 764 | Cc1sc2ccn(Cc3ccc(F)cc3)c(=O)c2c1C(=O)N1CCCC1 |
| 987 | Cc1ccc(-n2c(N3CCCC(C(=O)NCc4ccc(C)c(C)c4)C3)nc3ccsc3c2=O)cc1 (stereo not drawn) |
| 814 | Cc1cc(Cl)ccc1NC(=O)N1CCN(C2=CC3=NCC(C)N3C=N2)CC1 (stereo not drawn) |
| 958 | CCOC(=O)Cn1nc2c(-c3nc(-c4ccc(Cl)cc4)no3)cccn2c1=O |
| 556 | c1cn(-c2cc(N3CCCC3)ncn2)cn1 |
| 635 | CCCCC(=O)Nc1ccc2c(c1)nc(CN1CCN(S(C)(=O)=O)CC1)n2CC |
| 685 | Cc1ccc(C(=O)NCCc2sccc2C)cc1NC1=NC2CS(=O)(=O)CC2S1 (stereo not drawn) |
| 698 | CC(C)C(=O)N1CCc2c(c(C(=O)N3CCC(C(=O)NC4CCCCCC4)CC3)nn2C)C1 |
| 660 | COc1ccc(C(O)CN2CCN(c3ccccc3F)CC2)cc1 (stereo not drawn) |
| 693 | COc1ccc(OCc2noc(CNS(=O)(=O)CCN3C(=O)CCCC3=O)n2)cc1 |
| 585 | CC(=O)N1CCC2(CC1)CC(=O)c1ccc(O)c(O)c1O2 |
| 804 | Cn1nc(C(=O)N2CCCC2)c2c1CCN(C(=O)Nc1cccc(Br)c1)C2 |
| 1030 | Cc1ccc(CNC(=O)CCc2nc(N3CCCCC3)c3c(-c4ccc(F)cc4)noc3n2)o1 |
| 859 | CC1=C(c2ccc(F)cc2)S(=O)(=O)N=C1N1CCCN(C(=O)c2cccc(C)c2)CC1 |
| 1090 | O=C(NCCC1=CCCCC1)C1CCN(S(=O)(=O)c2ccc(-c3noc(C4CC4)n3)cc2)CC1 |
| 896 | Cc1cc(C)n(Cc2nc(-c3ccc(NC(=O)c4cccs4)cc3)oc2C)n1 |
| 770 | C=CCN(CC=C)c1nc(-c2ccccc2)nc2ccccc12 |

| RP-LC retention time [s] | Compound |
| --- | --- |
| 1270 | Cc1sc(-c2cc(C(F)(F)F)on2)cc1S(=O)(=O)N1CCc2ccccc21 |
| 823 | CC(NC(=O)Cn1cnc(-c2noc(-c3cccnc3)n2)c1)c1ccccc1 (stereo not drawn) |
| 807 | COc1ccc(-c2nc(Nc3ccccn3)sc2C)cc1 |
| 612 | COCc1noc([C@@H]2CN(Cc3cccc(OC)n3)C[C@H]2COC)n1 |
| 646 | Cc1cc(C)n2c(Nc3c(C)cccc3C)c(-c3ccc(O)cc3)nc2n1 |
| 764 | O=C(NCCc1cccs1)C1CCCN(c2ncnc3c2oc2ccccc23)C1 (stereo not drawn) |
| 623 | Cc1n[nH]c(C)c1S(=O)(=O)N1CCC(c2nnc(C3CC3)s2)CC1 |
| 644 | Cc1ccc2nc(NC(C)(C)CO)nc(-c3ccccc3)c2c1 |
| 780 | COC(=O)c1cc2c(=O)n(-c3ccc4c(c3)OCCO4)ccc2nc1C |
| 675 | COC(=O)c1cccc(NC(=O)C2CCN(c3c(C#N)cnc4ccccc34)CC2)c1 |
| 1170 | COc1ccc(S(=O)(=O)N2CCC(c3noc(-c4cccc(C)c4)n3)CC2)cc1 |
| 711 | CC(=O)c1cccc(NC(=O)CN2C(=O)NC3(CCCCC3)C2=O)c1 |
| 1080 | COc1cccc(-n2c(=O)c3sccc3n(Cc3nc(-c4ccc(OC(C)C)cc4)no3)c2=O)c1 |
| 749 | O=C(Cc1ccc(Cl)cc1)NC1CCN(c2cc(-c3cccs3)[nH]n2)C1 (stereo not drawn) |
| 685 | O=C(c1ccc2c(c1)OCO2)N1CCC2(CC1)N(c1ccccc1)C(=O)CS2(=O)=O |
| 756 | O=C(Cn1cnc2nc3c(cc2c1=O)CCCC3)NCc1cccc(Br)c1 |
| 902 | O=C(NCC1CCCO1)c1csc(N2CCN(c3ccc(F)cc3)CC2)n1 (stereo not drawn) |
| 698 | CCOC(=O)C1=C(CN(C)Cc2ccccc2)NC(=O)NC1c1ccc(Cl)cc1 (stereo not drawn) |
| 595 | Cc1oc(-c2[nH]ncc2C(=O)N2CCOCC2)cc1S(=O)(=O)N1CCOCC1 |
| 892 | COc1ccc(/C=C2\Cc3ccccc3C2=O)cc1OC |
| 837 | Cc1nc(C)c(C(=O)N2CCCC2c2nc(-c3ccc(F)cc3F)no2)s1 (stereo not drawn) |
| 902 | O=C(Cn1nc2c3cc(-c4ccccc4)nn3ccn2c1=O)Nc1ccccc1Cl |

| RP-LC retention time [s] | Compound |
| --- | --- |
| 667 | O=C(Cn1cccc(S(=O)(=O)N2CCOCC2)c1=O)N1CCc2ccccc21 |
| 766 | Cc1oc(C2CCN(C(=O)Nc3ccc4c(c3)CCC4)CC2)nc1C(=O)N(C)C |
| 660 | Cc1nc(CNC(=O)C2CCN(C(=O)NCCc3ccccc3)CC2)cs1 |
| 853 | O=c1c2nc(-c3ccccc3)cn2ccn1-c1ccc(F)c(Cl)c1 |
| 643 | C[C@H](NC(=O)C1CCN(S(=O)(=O)c2ccccc2)CC1)C(=O)O |
| 609 | O=C(NCc1ccc2c(c1)OCO2)C1CCCN(c2ccc(N3CCOCC3)nn2)C1 (stereo not drawn) |
| 728 | CC(=O)N1CCC(C(=O)NCc2nn(Cc3ccccc3)c3ccccc23)CC1 |
| 884 | CC(C)CNC(=O)C1CCN(c2nc3ccsc3c(=O)n2Cc2ccc(F)cc2)CC1 |
| 748 | COc1cc(NS(=O)(=O)c2cc3n(c2)CCN(C(C)C)C3=O)cc(OC)c1 |
| 786 | O=C(CCc1nnc2c3cc(-c4ccc(F)cc4)nn3ccn12)NCCc1cccs1 |
| 595 | CN(C)CCNC(=O)c1ccc(CS(=O)(=O)c2c(Cl)cccc2Cl)o1 |
| 610 | O=C(Cc1c[nH]c2ccccc12)N1CCN(C(=O)c2cc(-c3cccnc3)n[nH]2)CC1 |
| 676 | CC(C)CCNC(=O)c1ccc2nc(CCc3ccc(NC(=O)C(C)C)cc3)[nH]c2c1 |
| 856 | CC(NC(=O)C(=O)NCc1nc(-c2ccccc2)no1)c1ccccc1 (stereo not drawn) |
| 1020 | Cc1ccc(-c2ccnc3nc(-c4ccccc4)nn23)cc1 |
| 860 | N#CCc1nc(-c2cc3ccccc3o2)cs1 |
| 690 | COc1ccc(NC(=O)N2CCN(c3nc4cccnc4s3)CC2)cc1 |
| 696 | CC1CCCCN1CCCNC(=O)C1=Cc2cc(Br)ccc2OC1 (stereo not drawn) |
| 994 | N#Cc1cccc(NC(=O)C2CCN(S(=O)(=O)c3cc(-c4noc(C5CC5)n4)cs3)CC2)c1 |
| 857 | Cc1cc(-c2nnc(-c3ccco3)o2)c(C)n1CC(=O)NCc1ccc(F)cc1F |

| Compound | RP-LC retention time [s] |
| --- | --- |
| COc1cccc(CN2CC[C@@H]3CN(S(C)(=O)=O)[C@@H]3C2)n1 | 553 |
| COc1ccc2c(c1)[C@]13CCCC[C@@H]1[C@H](C2)N(C)CC3 | 732 |
